Consider 22 compounds from US20230391714A1, “INHIBITORS OF THE INTERACTION BETWEEN TRIP8B AND HCN CHANNELS AND USES THEREOF FOR TREATING NEUROLOGICAL DISEASES AND DISORDERS” (Northwestern University, priority 2022, published 2023).

One data set addresses TRIP8b-HCN1c40 (Homo sapiens (Human), UniProt Q8IYB4). In words: TRIP8b-HCN1c40 AlphaScreen assay. Type of data set: binding. In a few lines:
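GST-tagged HCN1c40 (C-terminal 40 residues, 20 nM) was incubated 3 h with 200 nM His-tagged TRIP8b(241-602) and varying compound concentrations. Anti-GST acceptor beads, then nickel chelate donor beads, were added for 1.5 h each before the AlphaScreen signal was read.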
(In Alpha technology, singlet oxygen from a donor bead excites a nearby acceptor bead.)

Data set [1] can be described thus: Thermodynamic solubility in PBS. The format is physicochemical. The conditions noted are these: PBS at pH 7.4, room temperature, stirring for 16 hours; for solubility thermodynamic at 16 h: aqueous buffer, thermodynamic from solid. The text has this:
(§1) Solubility and Mouse Microsomal Stability. […] In order to improve the aqueous solubility to support additional biochemical assays we made and characterized several salt forms. The formic acid (FA) salt was recovered after reverse-phase preparative HPLC while using formic acid as a modifier. […] On stirring the free amine in 4M HCl in dioxane, the compound was converted to the HCl salt as a white solid (Scheme 1). […] As a result, the HCl-salt of NUCC-0200590 was used for biophysical assays. The inhibitor was also screened for in vitro stability towards mouse liver microsomes to evaluate its potential metabolism and suitability for future in vivo experiments. The microsomal stability was measured after a 60-minute incubation at 37° C. with mouse liver microsomes. The compound was almost completely consumed by mouse liver microsomes after a 60-minute incubation as only 3.7% of the parent compound remained.

The nature of data set [2]: Mouse liver microsomal stability. The format is in vitro ADME. The conditions noted are these: 60-minute incubation at 37° C. with mouse liver microsomes.
Source text: as §1

The subject of the next data set is HEK293T cells. In words: Cell viability assay (alamar Blue). Type of data set: cell-based. The conditions noted are these: 0-50 μM, 24 hours. As to the method: Cell Viability Assays. HEK293T Cells (ATCC, Manassas, Virginia) were maintained as previously described (Lyman et al., 2017b). These cells were plated at 30-50% confluence and incubated for 24 hours with the concentration of NUCC-0200590 specified in the main text. The cells were then incubated with alamar Blue assay reagent per the Manufacturer's instructions (ThermoFisher, Rockford, IL) prior to reading the plates on a plate reader.
A general note: Alamar Blue is a resazurin reagent that responds to reducing activity.

In data set [3] the test system is HCN channels in CA1 pyramidal neurons. In words: Slice electrophysiology in CA1 pyramidal neurons. Type of data set: cell-based, mice. The conditions noted are these: 15 μM. On the procedure:
Slice Electrophysiology. Whole cell recordings from CA1 pyramidal neurons were performed using an electrophysiology rig described previously (Zhou et al., 2013; 2015). 300 micron sagittal sections were made from male and female mice with 5 μM CGP52432, 2 μM SR-95531, and 10 μM MK-801 to block GABAB, GABAA, and NMDAR. ACSF was composed of 125 mM NaCl, 2.5 mM KCl, 25 mM NaHCO3, 1.25 mM Na2PO4, 1 mM MgCl2, 2 mM CaCl2), and 25 mM glucose while the internal solution was 115 mM K-gluconate, 20 mM KCl, 10 mM Na2Phosphocreatinine, 2 mM MgATP, and 0.3 mM NaGTP. NUCC-0200590 was incubated in the slice chamber in a subset of experiments as described in the text. Current clamp recordings were performed at a holding potential of −70 mV.

The next data set addresses TRIP8b and HCN1 (Homo sapiens (Human), UniProt Q8IYB4). The data set can be described thus: NanoBiT live cell protein-protein interaction assay. Type of data set: cell-based. The conditions noted are these: HEK293T cells, 30 min incubation. As to the method:
NanoBiT live cell protein-protein interaction assay. HEK293T cells (obtained freshly from ATCC) were plated in DMEM (Thermo Fisher, #11965-092) with 10% FBS (Thermo Fisher, #16000-044) and Pen/Strep (Thermo Fisher #15140-122) at 1 million cells per well in 6-well tissue culture treated plates. The next day, cells were co-transfected using Lipofectamine 3000 with plasmids encoding the small Nanoluciferase fragment (SmBiT) fused to the N-terminus of full-length HCN1 (SmBiT-HCN1), and the large Nanoluciferase fragment (LgBiT) fused to the N-terminus of TRIP8b(1a-4) (LgBiT-TRIP8b). The plasmids were constructed by cloning into backbone vectors from the Promega NanoBiT MCS cloning kit #N2014. As a control for specific inhibition, other cells were co-transfected with SmBiT-PRKACA and LgBiT-PRKAR2A positive control plasmids from the kit. 24 hours post-transfection, the cells were trypsinized with TrypLE (Thermo Fisher, #12604-013), washed and suspended in phenol red-free Opti-MEM I (Thermo Fisher, #11058-021), and 25,000 cells per well were plated in white 384-well tissue culture-treated plates (Greiner #781080). […] Luminescence was generated by adding Nano-Glo live cell substrate (Promega, #N2011) and incubating for 30 minutes at 37° C. prior to detecting on a luminescent reader (Biotek Neo2).

Data set [4] can be described thus: DMSO needed in PBS to see proton signals in 1H-NMR (aqueous solubility). The format is physicochemical. The conditions noted are these: PBS (pH 7.4).
Source text: as §1

Where [5] appears, read: activity ranges, read-out: TRIP8b-HCN1c40 Alphascreen IC50 activity.
Setting [6] is: read-out: TRIP8b-HCN1c40 Alphascreen IC50.

Structures are written as SMILES. Read-outs that look alike come from different tables or passages of the source.

Chain of TRIP8b-HCN1c40 (Q8IYB4 265-626): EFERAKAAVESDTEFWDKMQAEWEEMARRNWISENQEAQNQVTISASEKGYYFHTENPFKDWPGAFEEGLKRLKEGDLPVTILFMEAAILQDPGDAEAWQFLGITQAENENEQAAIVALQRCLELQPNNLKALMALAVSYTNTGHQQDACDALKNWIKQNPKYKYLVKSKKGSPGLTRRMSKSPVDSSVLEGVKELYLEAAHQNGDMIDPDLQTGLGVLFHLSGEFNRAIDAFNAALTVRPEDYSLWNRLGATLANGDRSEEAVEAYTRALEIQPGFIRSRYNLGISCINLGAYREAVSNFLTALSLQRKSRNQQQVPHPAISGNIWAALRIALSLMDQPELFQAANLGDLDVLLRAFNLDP
Chain of TRIP8b and HCN1 (Q8IYB4 other isoform, or with tags, fused parts or gaps, species assumed): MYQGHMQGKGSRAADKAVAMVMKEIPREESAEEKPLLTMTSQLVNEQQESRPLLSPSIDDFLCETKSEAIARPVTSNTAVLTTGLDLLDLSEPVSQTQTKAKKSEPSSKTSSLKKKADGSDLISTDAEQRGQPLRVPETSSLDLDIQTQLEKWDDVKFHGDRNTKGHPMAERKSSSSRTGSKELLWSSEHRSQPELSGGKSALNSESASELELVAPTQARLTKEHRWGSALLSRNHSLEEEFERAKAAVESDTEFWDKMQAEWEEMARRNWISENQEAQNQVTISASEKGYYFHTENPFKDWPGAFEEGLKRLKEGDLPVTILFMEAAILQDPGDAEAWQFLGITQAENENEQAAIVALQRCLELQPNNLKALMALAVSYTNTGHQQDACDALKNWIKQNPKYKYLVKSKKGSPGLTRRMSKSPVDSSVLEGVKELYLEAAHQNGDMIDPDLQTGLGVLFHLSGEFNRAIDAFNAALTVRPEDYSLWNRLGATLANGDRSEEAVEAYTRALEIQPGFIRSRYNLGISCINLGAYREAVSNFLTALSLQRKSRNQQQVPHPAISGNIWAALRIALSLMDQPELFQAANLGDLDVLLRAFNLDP

On to `CN1CCN(Cc2cc(-c3ccc(F)cc3)ccc2OCC(=O)NCc2ccc(Cl)cc2)CC1` [NUCC-0200590, N-(4-chlorobenzyl)-2-((4′-fluoro-3-((4-methylpiperazin-1-yl)methyl)-[1,1′-biphenyl]-4-yl)oxy)acetamide], for which the IC50 (in general, the point on the concentration scale where inhibition reaches its midpoint) at TRIP8b-HCN1c40 (setting [5]) is 5 to 10 µM; at TRIP8b-HCN1c40 (most potent hit compound of in silico screen, read-out: IC50 value in the AlphaScreen assay), 19.9 ± 0.9 µM; on TRIP8b-HCN1c40 (setting [6]), 5.4 µM. Also, in data set [1], the thermodynamic solubility result was “completely insoluble”. In addition, the parent compound remained in data set [2] worked out at 3.7%. Further, the “viability as percentage of 0 μM control” value with HEK293T cells is given as “main effect of concentration”. Further, the sag ratio came out at 1.14±0.01 in data set [3] (Trip8b+/+ mice) and 1.05±0.02 in data set [3] (Trip8b−/− mice).
With `CN1CCN(Cc2cc(-c3ccc(F)cc3)ccc2OCC(=O)NCc2ccc(Cl)cc2)CC1.Cl` [NUCC-0200590 HCl salt, N-(4-chlorobenzyl)-2-((4′-fluoro-3-((4-methylpiperazin-1-yl)methyl)-[1,1′-biphenyl]-4-yl)oxy)acetamide hydrochloride], the thermodynamic solubility (as a rule, the concentration in solution at equilibrium with solid) at 16 h in data set [1] was found to be 252 µM. For the same compound, on TRIP8b and HCN1, the “disruption of TRIP8b-HCN1 interaction (NanoBiT luminescence)” value was “disrupts the interaction between fragments of TRIP8b and HCN1 in live cells”.
In the case of `CN1CCN(Cc2cc(-c3ccc(Cl)c(Cl)c3)ccc2OCC(=O)NCCc2ccc(C#N)cc2)CC1` [NUCC-0201994], the IC50 on TRIP8b-HCN1c40 (setting [5]) is 2 to 5 µM; on TRIP8b-HCN1c40 (setting [6]), 3.4 µM.
Regarding `COc1ccc([C@H](C)NC(=O)COc2ccc(-c3ccc(C)cc3)cc2CN2CCC(N(C)C)CC2)cc1` [NUCC-0201611], at TRIP8b-HCN1c40 (setting [6]), the 50% inhibitory concentration (IC50) was more than 40 µM.
As to `COc1ccc(CNC(=O)COc2ccc(-c3ccc(C)cc3)cc2CN2CCCN(C)CC2)c(OC)c1` [NUCC-0201599], the IC50 on TRIP8b-HCN1c40 (setting [5]) was 10 to 20 µM; at TRIP8b-HCN1c40 (setting [6]) it was 15 µM.
As for `CC(C)(C)c1ccc(-c2ccc(OCC(=O)NCc3ccc(Cl)cc3)c(CN3CCNCC3)c2)cc1` [NUCC-0201615], the IC50 on TRIP8b-HCN1c40 (setting [5]) was 5 to 10 µM; at TRIP8b-HCN1c40 (setting [6]), 6.3 µM.
Turning to `Cc1ccc(-c2ccc(OCC(=O)Nc3ccc(Cl)cc3)c(CN3CCC(N(C)C)CC3)c2)cc1` [NUCC-0201608], the IC50 was 5 to 10 µM on TRIP8b-HCN1c40 (setting [5]) and 7 µM on TRIP8b-HCN1c40 (setting [6]).
Turning to `CCN(CCO)Cc1cc(-c2ccc(C)cc2)ccc1OCC(=O)NCc1ccc(O)cc1` [NUCC-0201605], the IC50 on TRIP8b-HCN1c40 (setting [6]) was determined as 35 µM.
As for `CN1CCN(Cc2cc(-c3c(Cl)cc(Cl)cc3Cl)ccc2OCC(=O)NCc2ccc(Cl)cc2)CC1` [NUCC-0201970], the IC50 at TRIP8b-HCN1c40 (setting [6]) is less than 0.74 µM.
For `CN1CCN(Cc2cc(-c3ccc(Cl)c(Cl)c3)ccc2OCC(=O)NC2Cc3ccccc3C2)CC1` [NUCC-0201989], the values for the IC50 at TRIP8b-HCN1c40 (setting [5]) and at TRIP8b-HCN1c40 (setting [6]) were 1 to 2 µM and 1.3 µM, respectively.
As to `CC(Oc1ccc(-c2ccc([N+](=O)[O-])cc2)cc1CN1CCN(C)CC1)C(=O)NCc1ccc(Cl)cc1` (stereo not drawn) [NUCC-0202034], the IC50 at TRIP8b-HCN1c40 (setting [5]) was 2 to 5 µM; at TRIP8b-HCN1c40 (setting [6]), 2.7 µM.
Consider `CN1CCN(Cc2cc(-c3ccc(F)c(C(F)(F)F)c3)ccc2OCC(=O)NCc2ccc(Cl)cc2)CC1` [NUCC-0201709], for which the results for the IC50 at TRIP8b-HCN1c40 (setting [5]) and on TRIP8b-HCN1c40 (setting [6]) were 2 to 5 µM and 2.8 µM, respectively.
Regarding `CN1CCN(Cc2cc(-c3ccccc3)ccc2OCC(=O)Nc2ccc(Cl)c(Cl)c2)CC1` [NUCC-0202004], the results for the 50% inhibitory concentration (IC50) at TRIP8b-HCN1c40 (setting [5]) and at TRIP8b-HCN1c40 (setting [6]) were less than 1 µM and 0.89 µM, respectively.
With `CN1CCN(Cc2cc(-c3ccc(Cl)c(Cl)c3)ccc2OCC(=O)Nc2ccc3ncsc3c2)CC1` [NUCC-0202014], the IC50 is less than 1 µM at TRIP8b-HCN1c40 (setting [5]) and 0.81 µM at TRIP8b-HCN1c40 (setting [6]).
For the compound `CNC(=O)c1ccc(NC(=O)COc2ccc(-c3cccc(C)c3)cc2CN2CC[C@H](N)C2)cc1` [NUCC-0201623], the IC50 was 20 to 40 µM at TRIP8b-HCN1c40 (setting [5]) and 22 µM on TRIP8b-HCN1c40 (setting [6]).
Regarding `CN1CCN(Cc2cc(-c3ccc(F)cc3)ccc2OCC(=O)NC2CC2)CC1` [NUCC-0201101], the IC50 at TRIP8b-HCN1c40 (setting [6]) came out at 110 µM.
For the compound `O=Cc1cc(-c2ccc(F)cc2)ccc1O` [NUCC-0201191], the IC50 at TRIP8b-HCN1c40 (setting [6]) was 58 µM.
For the compound `CN1CCN(Cc2cc(-c3ccc(Cl)c(Cl)c3)ccc2OCC(=O)NC2CCc3ccccc32)CC1` (stereo not drawn) [NUCC-0201988], the IC50 on TRIP8b-HCN1c40 (setting [5]) was 1 to 2 µM; on TRIP8b-HCN1c40 (setting [6]) it was 1.4 µM.
The like results for `C=Cc1ccccc1NC(=O)COc1ccc(-c2ccc(Cl)c(Cl)c2)cc1CN1CCN(C)CC1` [NUCC-0202015] were, in that order, 1 to 2 µM and 1.1 µM.
The corresponding values for `CN1CCN(Cc2cc(-c3ccc(N)cc3)ccc2OCC(=O)NCc2ccc(Cl)cc2)CC1` [NUCC-0202053] are 10 to 20 µM and 18 µM.
With `CN1CCN(Cc2cc(-c3ccc(F)cc3)ccc2OCC(=O)NCc2ccc(Cl)cc2)CC1.O=CO` [NUCC-0200590 FA salt, N-(4-chlorobenzyl)-2-((4′-fluoro-3-((4-methylpiperazin-1-yl)methyl)-[1,1′-biphenyl]-4-yl)oxy)acetamide formate], in data set [1], the solubility (thermodynamic) at 16 h turned out to be 45 µM. Further, the “DMSO in PBS required to see proton signals in 1H-NMR” value in data set [4] was determined as 15%.
Take `Cc1ccc(-c2ccc(OC(C)C(=O)N[C@H](C)c3ccc(C)cc3)c(CN3CCN(C)CC3)c2)cc1` (stereo partly drawn) [NUCC-0202048]: the values for the IC50 on TRIP8b-HCN1c40 (setting [5]) and on TRIP8b-HCN1c40 (setting [6]) were 1 to 2 µM and 1.9 µM, respectively.
